Assay results taken from patent US12005127B2, “DNA-PK inhibitors” (VERTEX PHARMACEUTICALS INCORPORATED, priority 2018, dated 2024).

Assays:
[1] = biological target: T1, DNA-PK (Homo sapiens, UniProt P78527); test: DNA-PK inhibition assay (radiometric 33P-ATP kinase assay); assay type: biochemical; conditions: competitive tight-binding fit
Description: Compounds were screened for their ability to inhibit DNA-PK kinase using a standard radiometric assay. Briefly, in this kinase assay the transfer of the terminal ^33P-phosphate in ^33P-ATP to a peptide substrate is interrogated. The assay was carried out in 384-well plates to a final volume of 50 μL per well containing approximately 6 nM DNA-PK, 50 mM HEPES (pH 7.5), 10 mM MgCl2, 25 mM NaCl, 0.01% BSA, 1 mM DTT, 10 μg/mL sheared double-stranded DNA (obtained from Sigma), 0.8 mg/mL DNA-PK peptide (Glu-Pro-Pro-Leu-Ser-Gln-Glu-Ala-Phe-Ala-Asp-Leu-Trp-Lys-Lys-Lys, obtained from American Peptide), and 100 μM ATP. Accordingly, compounds of the invention were dissolved in DMSO to make 10 mM initial stock solutions. Serial dilutions in DMSO were then made to obtain the final solutions for the assay. A 0.75 μL aliquot of DMSO or inhibitor in DMSO was added to each well, followed by the addition of ATP substrate solution containing ^33P-ATP (obtained from Perkin Elmer). The reaction was started by the addition of DNA-PK, peptide and ds-DNA. After 45 min, the reaction was quenched with 25 μL of 5% phosphoric acid. The reaction mixture was transferred to MultiScreen HTS 384-well PH plates (obtained from Millipore), allowed to bind for one hour, and washed three times with 1% phosphoric acid. Following the addition of 50 μL of Ultima Gold™ high efficiency scintillant (obtained from Perkin Elmer), the samples were counted in a Packard TopCount NXT Microplate Scintillation and Luminescence Counter (Packard BioScience). The Ki values were calculated using Microsoft Excel Solver macros to fit the data to the kinetic model for competitive tight-binding inhibition. In Tables 1 and 2 below, Ki of less than 0.001 micromolar for the inhibition of DNA-PK is indicated as “A”; Ki of equal to or greater than 0.001 micromolar and less than 0.01 micromolar for the inhibition of DNA-PK as “B”; Ki of equal to or greater than 0.01 micromolar and less than 0.1 micromolar for the inhibition of DNA-PK as “C”; Ki of equal to or greater than 0.1 micromolar and less than 1 micromolar for the inhibition of DNA-PK for “D”; and Ki of equal to or greater than 1 micromolar as “E.”

[2] = biological target: T1, DNA-PK; test: DNA-PK cellular assay (pDNA-PK Ser2056 sandwich ELISA, NCS-induced DSBs); assay type: cell-based; set-up: endogenous in cells; host or cells: A549 (human NSCLC); conditions: pDNA-PK (Ser2056) in A549 cells, NCS 50 ng/ml, 15 minutes
Description: DNA-PK is recruited to and activated by double-strand breaks (DSB) in DNA and plays a critical role in the non-homologous end-joining (NHEJ) repair mechanism. Upon activation, DNA-PK undergoes rapid autophosphorylation at Ser2056. The measure of pDNA-PK (Ser2056) in response to DNA DSBs provides a cellular signaling assay to evaluate potential DNA-PK kinase inhibitors.
Neocarzinostatin (NCS) was used as a radiomimetic to induce DNA DSBs. The sandwich ELISA used the Meso Scale Discovery electrochemiluminescence technology platform which typically provides greater sensitivity than traditional ELISA formats.
A549 (human NSCLC) cells are plated at 25,000 cells/well in 100 uL of DMEM (Invitrogen cat #11995-040) supplemented with 1% Pen/Strep (Invitrogen cat #15070-063) and 10% FBS (Hyclone cat #SH30071.03HI) on black clear bottom 96 well plates (Costar #3904) and allowed to adhere overnight at 37° C. in 5% CO2. The following day, the compounds and NCS solutions are prepared by adding 100 ul of DMEM growth media per well in a Corning polypropylene V-bottom deep well plate (cat #3357). The HP Compound Dilution D300 instrument was used to add compounds to the appropriate wells using the setting logarithmic and 16-point titration singlet.
The DMEM NCS solution was prepared by adding NCS to DMEM media at 200 ng/ml (final assay concentration, 50 ng/ml). 100 ul of the DMEM/NCS solution is added to the wells with the compounds. 100 ul of this solution is then immediately added to the A549 cells. The cells are then incubated for 15 minutes at 37° C.
The complete lysis buffer is prepared by adding 1% Phosphatase inhibitor (Sigma cat #P2850) and 1% Protease Inhibitor (Sigma cat #P8340) to the Lanthascreen cellular assay lysis buffer (Invitrogen cat #PV5598). The media from the plate was removed by flicking and patting dry. 60 uL/well of the complete lysis buffer is added to each well. These plates are then incubated for at least 5 minutes in the lysis buffer at room temperature to ensure complete lysis. At this point the lysates can be transferred to prepared ELISA plates.
The prepared ELISA plates were prepared blocking the Mesoscale Goat-Anti-Mouse (GAM) plates with 150 uL/well of 3% Blocker A (Mesoscale cat #R93-BA) for one hour at room temperature with shaking. The capture antibody is prepared by diluting the mouse monoclonal anti-total DNA-PK (AbCAM cat #ab1832) to 3 ug/mL in 1% Blocker A. The blocked plates rinsed once with 200 uL D-PBS. The capture antibody (25 ul/well) was added to each well and allowed to incubate for an hour at room temperature while shaking. This was rinsed once with 200 ul D-PBS before adding 25 uL of the prepared cell lysate from the cell plates to the Mesoscale GAM ELISA plate. The lysate is then incubated on the plates for one hour at room temperature with shaking. The detection antibody (Epitomics rabbit anti-pS2056-DNA-PK) is prepared at a 1/1000 dilution (to a final concentration of 450 ng/mL) in 1% Blocker A. The GAM plates are washed once with 200 uL of D-PBS and then 25 uL/well of the detection antibody is added to the plate. This incubates for one hour at room temperature with shaking. The Sulfotag is prepared by adding Sulfo-Tag Goat-Anti-Rabbit antibody (Mesoscale cat #R32AB-1) at a 1/500 dilution (1 ug/mL) to 1% Blocker A. The GAM plates are washed with 200 uL of D-PBS and then 25 uL of the Sulfotag preparation is added to each well. Once the plates have been incubated with the final solution, the Sulfotag, for 1 hour, they are washed once with 200 uL of D-PBS. The 1× Read Buffer (Mesoscale cat #R32-TC) is made by diluting the 4× buffer in ddH20. 150 uL of 1× buffer is added to each well of the GAM plate and then the plate is read on the Sector Imager 2400. The readout (electrochemiluminescence) was plotted against the concentration of each compound and the IC50s were generated using Prism software (GraphPad Prism version 6.0e for Macintosh). […]

SMILES	Ki ([1]; Table 1, 100 μM ATP)	IC50 ([2]; Table 1)	Ki ([1]; Table 2, 100 μM ATP)	IC50 ([2]; Table 2)
CNC(=O)c1ccnc(N[C@H]2CC[C@@H](Oc3cc(N4CCOCC4)cc4ncnc(C)c34)CC2)n1 [Compound 13, N-methyl-2-[[4-(4-methyl-7-morpholino-quinazolin-5-yl)oxycyclohexyl]amino]pyrimidine-4-carboxamide]	< 0.001 µM	< 100 nM	–	–
CN1CCN(c2cc(N[C@H]3CC[C@@H](Oc4cc(N5CCOCC5)cc5ncncc45)CC3)ncn2)CC1 [Compound 14, 6-(4-methylpiperazin-1-yl)-N-[4-(7-morpholinoquinazolin-5-yl)oxycyclohexyl]pyrimidin-4-amine]	< 0.001 µM	< 100 nM	–	–
O=C(N[C@H]1CC[C@@H](Oc2cc(N3CCOCC3)cc3ncncc23)CC1)c1ccncn1 [Compound 15, N-[4-(7-morpholinoquinazolin-5-yl)oxycyclohexyl]pyrimidine-4-carboxamide]	< 0.001 µM	< 100 nM	–	–
O=C(N[C@H]1CC[C@@H](Oc2cc(N3CCOCC3)cc3ncncc23)CC1)C1CC1 [Compound 16, N-[4-(7-morpholinoquinazolin-5-yl)oxycyclohexyl]cyclopropanecarboxamide]	< 0.001 µM	< 100 nM	–	–
c1ncc2c(O[C@H]3CC[C@@H](Nc4ncnc5ccoc45)CC3)cc(N3CCOCC3)cc2n1 [Compound 17, N-[4-(7-morpholinoquinazolin-5-yl)oxycyclohexyl]furo[3,2-d]pyrimidin-4-amine]	< 0.001 µM	< 100 nM	–	–
CN1CCN(c2nccc(N[C@H]3CC[C@@H](Oc4cc(N5CCOCC5)cc5ncncc45)CC3)n2)CC1 [Compound 18, 2-(4-methylpiperazin-1-yl)-N-[4-(7-morpholinoquinazolin-5-yl)oxycyclohexyl]pyrimidin-4-amine]	< 0.001 µM	< 100 nM	–	–
CNC(=O)c1ccnc(N[C@H]2CC[C@@H](Oc3cc(N4CCOCC4)cc4nc(C)ncc34)CC2)n1 [Compound 19]	0.001 to 0.01 µM	< 100 nM	–	–
COCC(=O)N[C@H]1CC[C@@H](Oc2cc(N3CCOCC3)cc3ncncc23)CC1 [Compound 20, 2-methoxy-N-((1s,4s)-4-((7-morpholinoquinazolin-5-yl)oxy)cyclohexyl)acetamide]	0.001 to 0.01 µM	≥ 1000 nM	–	–
CCOC(=O)N[C@H]1CC[C@@H](Oc2cc(N3CCOCC3)cc3ncncc23)CC1 [Compound 22, ethyl ((1s,4s)-4-((7-morpholinoquinazolin-5-yl)oxy)cyclohexyl)carbamate]	< 0.001 µM	< 100 nM	–	–
CC1(C(=O)N[C@H]2CC[C@@H](Oc3cc(N4CCOCC4)cc4ncncc34)CC2)CC1 [Compound 23, 1-methyl-N-((1s,4s)-4-((7-morpholinoquinazolin-5-yl)oxy)cyclohexyl)cyclopropane-1-carboxamide]	< 0.001 µM	< 100 nM	–	–
Cn1ccc(N[C@H]2CC[C@@H](Oc3cc(N4CCOCC4)cc4ncncc34)CC2)n1 [Compound 24, 1-methyl-N-((1s,4s)-4-((7-morpholinoquinazolin-5-yl)oxy)cyclohexyl)-1H-pyrazol-3-amine]	< 0.001 µM	< 100 nM	–	–
COc1ccc(COc2cc(N3CCOCC3)cc3nc[nH]c(=O)c23)cc1 [Compound 51, 5-[(4-methoxyphenyl)methoxy]-7-morpholino-3H-quinazolin-4-one]	–	–	0.1 to 1 µM	≥ 1000 nM
COc1ccc(COc2cc(N3CCOCC3)cc3ncncc23)cc1 [Compound 52, 4-[5-[(4-methoxyphenyl)methoxy]quinazolin-7-yl]morpholine]	–	–	0.001 to 0.01 µM	≥ 1000 nM
COc1ccc(COc2cc(N3CCOCC3)cc3ncnc(OC)c23)cc1 [Compound 53, 4-[4-methoxy-5-[(4-methoxyphenyl)methoxy]quinazolin-7-yl]morpholine]	–	–	0.01 to 0.1 µM	≥ 1000 nM
COc1ccc(COc2cc(N3CCOCC3)cc3ncnc(C#N)c23)cc1 [Compound 55, 5-[(4-methoxyphenyl)methoxy]-7-morpholino-quinazoline-4-carbonitrile]	–	–	0.001 to 0.01 µM	≥ 1000 nM
